The values below come from patent publication US8029774B2, “Wound healing polymeric networks” (University of Pittsburgh, priority 2005, dated 2011).

For series [1], the system named is human keratinocytes (HaCaT cells). The series is described as follows: Cell motility, in vitro wound healing assay. The note with it: compared to no gel.
The test system of the next series is human dermal fibroblasts. The series is described as follows: Cell motility, in vitro wound healing assay. The note with it: for movement of fibroblasts: in vitro wound healing assay, compared to no gel.

With `COC(=O)C(CCCCN=C=O)N=C=O` (centres unmarked) [LDI, Lysine diisocyanate methyl ester], the movement of keratinocytes result in series [1] was “limited cell movement”. In the series with human dermal fibroblasts, the movement of fibroblasts entry is “limited cell movement”.

For `OC[C@H]1O[C@@H](O[C@H]2[C@H](O)[C@@H](O)C(O)O[C@@H]2CO)[C@H](O)[C@@H](O)[C@H]1O` (some centres unmarked) [lactose], in series [1], the movement of keratinocytes result is given as “limited cell movement”. Also, the movement of fibroblasts entry with human dermal fibroblasts is recorded as “limited cell movement”.

For `O=[N+]([O-])[O-].[Ag+]` [silver nitrate], the dead cells in the series with human fibroblasts (human fibroblasts, 3 μg/ml of silver nitrate in medium, or polymer cured with 3 μg/ml silver) is 10%.

`[Ag]` [silver]: the “impact on cell migration or proliferation” value in the series on human dermal fibroblasts (silver per se) is “no adverse impact”. Moreover, in the series on human fibroblasts, the “concentrations of silver preferred for cell proliferation” value was “lower than 15 μg/ml” and the fibroblasts proliferation entry was “greatly inhibited”.
